This note sets out measurements from ChEMBL document CHEMBL1148826, “Substituted 6-(1-pyrrolidine)quinolin-2(1H)-ones as novel selective androgen receptor modulators” (J Med Chem, 2007).

By EC50 is commonly meant the concentration needed to bring the measured effect to its halfway point. What is called IC50 is the point on the concentration scale where inhibition reaches its midpoint. In general, Ki refers to the dissociation constant of the complex between target and ligand, obtained from inhibition or displacement. A low value points to higher affinity. The half-life is the time in which the quantity being followed falls by half. A high value points to slow decline. Broadly, the AUC(0-inf) is the area under the concentration-time curve extrapolated to infinity. Read a high AUC(0-inf) as more exposure. By bioavailability is commonly meant dose-corrected exposure relative to a reference, in per cent.

Data set [1] has as its target T1, Androgen receptor (Homo sapiens, UniProt P10275).
T1 sequence (P10275 whole entry): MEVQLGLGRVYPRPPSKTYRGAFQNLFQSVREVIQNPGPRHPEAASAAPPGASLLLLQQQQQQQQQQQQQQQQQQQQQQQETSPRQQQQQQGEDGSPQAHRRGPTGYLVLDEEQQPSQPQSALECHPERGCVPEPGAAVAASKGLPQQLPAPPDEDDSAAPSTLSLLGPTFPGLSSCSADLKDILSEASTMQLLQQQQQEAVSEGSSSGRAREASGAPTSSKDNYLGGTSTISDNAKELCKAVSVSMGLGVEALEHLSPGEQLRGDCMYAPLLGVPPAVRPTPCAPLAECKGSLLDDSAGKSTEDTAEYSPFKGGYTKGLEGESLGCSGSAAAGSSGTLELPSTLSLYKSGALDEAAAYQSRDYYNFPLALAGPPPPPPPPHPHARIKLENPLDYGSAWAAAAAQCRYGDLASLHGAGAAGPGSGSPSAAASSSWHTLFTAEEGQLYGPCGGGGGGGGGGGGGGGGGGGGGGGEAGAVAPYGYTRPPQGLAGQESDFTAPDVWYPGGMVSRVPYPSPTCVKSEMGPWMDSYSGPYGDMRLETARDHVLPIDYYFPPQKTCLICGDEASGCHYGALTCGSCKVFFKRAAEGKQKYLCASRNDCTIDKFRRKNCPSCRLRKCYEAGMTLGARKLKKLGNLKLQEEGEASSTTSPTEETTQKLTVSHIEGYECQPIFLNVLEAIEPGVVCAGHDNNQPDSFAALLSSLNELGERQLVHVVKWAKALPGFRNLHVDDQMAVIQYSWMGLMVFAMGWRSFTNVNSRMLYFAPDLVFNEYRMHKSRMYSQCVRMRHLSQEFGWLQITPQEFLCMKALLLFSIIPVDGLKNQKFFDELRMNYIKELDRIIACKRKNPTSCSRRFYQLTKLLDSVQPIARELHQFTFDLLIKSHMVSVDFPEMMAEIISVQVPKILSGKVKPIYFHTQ
Description: Agonist activity at human androgen receptor by luciferase reporter gene assay

The target of data set [2] is T1, Androgen receptor. This is another data set of the same source.
Description: Antagonist activity at human androgen receptor by luciferase reporter gene assay
Data set [3] concerns the target T1, Androgen receptor. This is another data set of the same source.
Description: Binding affinity to human AR
The target of data set [4] is T2, Mineralocorticoid receptor (Homo sapiens, UniProt P08235).
T2 sequence (P08235 whole entry): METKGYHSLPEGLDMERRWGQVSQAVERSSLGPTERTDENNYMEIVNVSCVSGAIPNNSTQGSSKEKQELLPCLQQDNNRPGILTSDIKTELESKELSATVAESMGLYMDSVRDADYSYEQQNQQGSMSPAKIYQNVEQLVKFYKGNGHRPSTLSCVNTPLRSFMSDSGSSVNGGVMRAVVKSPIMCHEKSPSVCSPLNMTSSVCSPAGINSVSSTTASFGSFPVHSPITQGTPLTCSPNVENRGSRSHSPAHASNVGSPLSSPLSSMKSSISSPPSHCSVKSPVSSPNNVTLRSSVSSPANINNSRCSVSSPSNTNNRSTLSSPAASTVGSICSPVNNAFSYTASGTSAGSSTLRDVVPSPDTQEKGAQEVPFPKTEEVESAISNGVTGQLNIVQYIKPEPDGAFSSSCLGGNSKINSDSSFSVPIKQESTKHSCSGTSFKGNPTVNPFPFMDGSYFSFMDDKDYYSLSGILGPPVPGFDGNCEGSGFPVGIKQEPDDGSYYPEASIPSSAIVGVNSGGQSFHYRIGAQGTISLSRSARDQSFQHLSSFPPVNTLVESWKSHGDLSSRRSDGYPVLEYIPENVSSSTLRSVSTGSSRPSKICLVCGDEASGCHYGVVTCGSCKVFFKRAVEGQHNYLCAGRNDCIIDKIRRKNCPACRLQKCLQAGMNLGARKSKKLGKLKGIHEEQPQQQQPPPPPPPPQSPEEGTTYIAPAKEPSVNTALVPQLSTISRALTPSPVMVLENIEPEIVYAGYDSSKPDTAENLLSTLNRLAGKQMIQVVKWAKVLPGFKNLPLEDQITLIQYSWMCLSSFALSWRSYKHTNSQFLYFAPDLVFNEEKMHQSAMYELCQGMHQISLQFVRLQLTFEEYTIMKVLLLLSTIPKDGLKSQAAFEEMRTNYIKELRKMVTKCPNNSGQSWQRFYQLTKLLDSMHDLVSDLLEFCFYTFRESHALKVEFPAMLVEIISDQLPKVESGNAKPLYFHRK
The data set can be described thus: Binding affinity to MR.

For a further data set, the target named is T3, Estrogen receptor (Homo sapiens, UniProt P03372).
T3 sequence (P03372 whole entry): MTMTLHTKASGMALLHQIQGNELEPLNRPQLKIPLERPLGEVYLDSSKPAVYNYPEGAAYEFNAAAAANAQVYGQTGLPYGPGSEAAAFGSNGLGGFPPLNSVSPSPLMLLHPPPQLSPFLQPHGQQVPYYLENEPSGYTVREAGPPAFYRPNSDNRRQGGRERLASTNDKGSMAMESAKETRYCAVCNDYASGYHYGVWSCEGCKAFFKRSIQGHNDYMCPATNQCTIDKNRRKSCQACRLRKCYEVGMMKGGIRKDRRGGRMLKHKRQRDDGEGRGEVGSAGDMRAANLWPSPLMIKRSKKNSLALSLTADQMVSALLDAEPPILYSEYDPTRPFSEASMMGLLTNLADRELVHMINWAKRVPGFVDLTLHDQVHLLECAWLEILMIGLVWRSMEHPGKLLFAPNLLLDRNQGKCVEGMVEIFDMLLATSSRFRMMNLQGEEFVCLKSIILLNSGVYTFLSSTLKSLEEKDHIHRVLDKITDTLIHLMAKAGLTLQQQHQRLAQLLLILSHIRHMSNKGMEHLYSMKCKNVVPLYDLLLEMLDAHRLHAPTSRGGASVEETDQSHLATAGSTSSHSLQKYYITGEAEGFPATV
Description: Binding affinity to ERalpha.

For a further data set, the target named is T4, Progesterone receptor (Homo sapiens, UniProt P06401).
T4 sequence (P06401 whole entry): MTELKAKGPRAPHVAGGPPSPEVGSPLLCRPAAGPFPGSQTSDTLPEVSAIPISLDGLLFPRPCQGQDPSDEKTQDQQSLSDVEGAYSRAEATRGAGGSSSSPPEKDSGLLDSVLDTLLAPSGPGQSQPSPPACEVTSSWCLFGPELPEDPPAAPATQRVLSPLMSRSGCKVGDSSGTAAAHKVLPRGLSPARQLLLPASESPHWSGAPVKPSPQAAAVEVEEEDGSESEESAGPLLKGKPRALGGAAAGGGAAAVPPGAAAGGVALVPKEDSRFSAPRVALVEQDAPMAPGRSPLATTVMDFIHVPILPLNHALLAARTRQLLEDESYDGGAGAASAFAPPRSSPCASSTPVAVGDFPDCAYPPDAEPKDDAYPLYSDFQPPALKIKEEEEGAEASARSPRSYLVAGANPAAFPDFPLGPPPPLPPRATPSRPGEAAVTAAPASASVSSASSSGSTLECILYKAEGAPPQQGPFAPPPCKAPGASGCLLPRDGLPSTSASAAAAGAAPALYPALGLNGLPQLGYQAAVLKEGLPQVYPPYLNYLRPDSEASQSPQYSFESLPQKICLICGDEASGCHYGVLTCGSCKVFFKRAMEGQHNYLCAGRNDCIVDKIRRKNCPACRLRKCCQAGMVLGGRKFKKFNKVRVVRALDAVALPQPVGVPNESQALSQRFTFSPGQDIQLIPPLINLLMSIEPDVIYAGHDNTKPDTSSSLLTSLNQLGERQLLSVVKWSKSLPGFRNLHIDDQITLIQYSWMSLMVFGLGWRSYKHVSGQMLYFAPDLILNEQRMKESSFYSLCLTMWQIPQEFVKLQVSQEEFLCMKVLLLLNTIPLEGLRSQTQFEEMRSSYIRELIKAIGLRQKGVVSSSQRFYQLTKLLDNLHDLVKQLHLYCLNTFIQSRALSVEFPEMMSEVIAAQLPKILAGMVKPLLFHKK
Description: Binding affinity to PR.

For another data set, the target named is T5, Glucocorticoid receptor (Homo sapiens, UniProt P04150).
T5 sequence (P04150 whole entry): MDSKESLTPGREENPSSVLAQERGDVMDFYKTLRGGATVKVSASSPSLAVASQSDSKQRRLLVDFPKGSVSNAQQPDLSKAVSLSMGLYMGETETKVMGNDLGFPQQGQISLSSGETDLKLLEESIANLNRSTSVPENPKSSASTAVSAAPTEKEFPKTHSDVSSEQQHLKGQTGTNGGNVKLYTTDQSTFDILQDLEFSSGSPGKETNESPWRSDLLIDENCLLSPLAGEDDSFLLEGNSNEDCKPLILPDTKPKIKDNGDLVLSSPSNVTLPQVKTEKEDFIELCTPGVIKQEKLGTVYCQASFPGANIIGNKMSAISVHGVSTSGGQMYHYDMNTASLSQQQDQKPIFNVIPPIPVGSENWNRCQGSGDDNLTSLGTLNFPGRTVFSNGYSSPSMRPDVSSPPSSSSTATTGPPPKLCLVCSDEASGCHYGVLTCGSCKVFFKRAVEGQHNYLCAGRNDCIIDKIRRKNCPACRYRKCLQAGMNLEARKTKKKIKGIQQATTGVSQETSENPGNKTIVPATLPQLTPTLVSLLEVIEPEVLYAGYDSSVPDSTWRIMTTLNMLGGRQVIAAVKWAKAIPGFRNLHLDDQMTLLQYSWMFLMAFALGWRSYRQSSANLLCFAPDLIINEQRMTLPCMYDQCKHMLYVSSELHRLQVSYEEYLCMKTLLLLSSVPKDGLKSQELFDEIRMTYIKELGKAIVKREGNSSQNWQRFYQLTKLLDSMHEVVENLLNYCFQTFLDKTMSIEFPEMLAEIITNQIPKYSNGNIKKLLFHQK
The data set can be described thus: Binding affinity to GR.

Data set [5] can be described thus: Half life in Sprague-Dawley rat at 2.5 mg/kg, iv. More on the design: dose 2.5 mg/kg, route intravenous. Format: ADME, organism-based. Conditions: in vivo.
Data set [6] in a line: AUC (0 to infinity) in Sprague-Dawley rat at 14.6 mg/kg, po. Format: ADME, organism-based. Further details: time infinity, dose 14.6 mg/kg, route oral. The note with it: plasma.
Data set [7] in a line: Bioavailability in Sprague-Dawley rat at 14.6 mg/kg, po. In kind it is ADME, organism-based. Conditions: in vivo.
Data set [8] in a line: Anabolic effect as increased levator ani muscle weight in orchidectomized rat model at doses > 1 mg/kg. In kind it is functional, organism-based. Further details: dose 1 mg/kg.
Data set [9] can be described thus: AUC (0 to infinity) in Sprague-Dawley rat at 10 mg/kg, po. Further details: time infinity, dose 10 mg/kg, route oral. In kind it is ADME, organism-based. Conditions: plasma.
The nature of data set [10]: Bioavailability in Sprague-Dawley rat at 10 mg/kg, po. In kind it is ADME, organism-based. Conditions: in vivo.

For the compound `O=c1cc(C(F)(F)F)c2cc(N3CCCC3)ccc2[nH]1`, the EC50 at Androgen receptor [1] was above 10000 nM. Also, the IC50 at Androgen receptor [2] came to 25 nM. The same compound displayed a Ki on Androgen receptor [3] of 1700 nM.
Turning to `C[C@@H]1CC[C@H]([C@H](O)C(F)(F)F)N1c1ccc2[nH]c(=O)cc(C(F)(F)F)c2c1`, at Androgen receptor [1], the EC50 turned out to be 8.4 nM. At Androgen receptor [2], this compound showed an IC50 above 10000 nM. The compound further yielded a Ki on Androgen receptor [3] of 7.6 nM.
Turning to `C[C@@H]1CC[C@H]([C@@H](O)C(F)(F)F)N1c1ccc2[nH]c(=O)cc(C(F)(F)F)c2c1` [LGD-2941], the Ki in [4] was above 10000 nM; on Estrogen receptor it was above 10000 nM; at Progesterone receptor, 2500 nM; on Glucocorticoid receptor, 8300 nM; at Androgen receptor [3] it was 1.5 nM. In [5], this compound gave a half-life of 2.7 h. Further, the AUC(0-inf) in data set [6] amounted to 11800 ng·h/mL. Besides, the bioavailability in data set [7] came out at 100%. Further, the Anabolic activity entry in data set [8] is on record as “Anabolic”. At Androgen receptor [1], this compound displayed an EC50 of 7.1 nM. This compound also came in with an IC50 at Androgen receptor [2] above 10000 nM.
In turn, `C[C@@H]1CC[C@H](CCl)N1c1ccc2[nH]c(=O)cc(C(F)(F)F)c2c1` yielded an EC50 at Androgen receptor [1] of 12 nM. Further, at Androgen receptor [2], the IC50 is above 10000 nM. Besides, the affinity on Androgen receptor [3] corresponds to a Ki of 10 nM.
The matching figures for `C[C@@H]1CC[C@H](C)N1c1ccc2[nH]c(=O)cc(C(F)(F)F)c2c1`: 2.6 nM, above 10000 nM and 19 nM.
With `C[C@@H]1CC[C@H](CO)N1c1ccc2[nH]c(=O)cc(C(F)(F)F)c2c1`, the EC50 at Androgen receptor [1] amounted to 21 nM. The compound further returned an IC50 at Androgen receptor [2] above 10000 nM. Moreover, the Ki at Androgen receptor [3] came out at 70 nM.
Regarding `CC1CCCN1c1ccc2[nH]c(=O)cc(C(F)(F)F)c2c1` (racemic), at Androgen receptor [2], the IC50 was above 10000 nM. Besides, the Ki on Androgen receptor [3] is 72 nM.
`O=c1cc(C(F)(F)F)c2cc(N(CC(F)(F)F)CC(F)(F)F)ccc2[nH]1`: the half-life in data set [5] is 1.7 h. In data set [9], this compound gave an AUC(0-inf) of 3150 ng·h/mL. The compound further registered a bioavailability in [10] of 43%.
Compound `C[C@@H]1CC[C@@H](C)N1c1ccc2[nH]c(=O)cc(C(F)(F)F)c2c1` (racemic) came in with an EC50 on Androgen receptor [1] of 48 nM. The same compound had an IC50 at Androgen receptor [2] above 10000 nM. Moreover, the affinity on Androgen receptor [3], expressed as Ki, was 43 nM.
